System: 653999-131-R-J2-PDC complex spheroids, growth % test/control
Test: Anticancer human tumor 653999-131-R-J2-PDC patient-derived lung adenocarcinoma cell line growth inhibition [AhR]
Settings: for IC50: curve of first compound; for viability, T/C: stronger effect = lower value
Summary of the method: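 Agents were dosed in half-log steps down from roughly clinical Cmax, or from 10 microM where Cmax was unknown, alone and with AhR antagonists. Read-out: percent test/control growth of tumor spheroids containing HUVEC and MSC stromal cells.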

[1] = second compound 0.1 µM, first compound 0.0316 µM
[2] = second compound 0.1 µM, first compound 0.1 µM
[3] = second compound 0.1 µM, first compound 0.316 µM
[4] = second compound 0.1 µM, first compound 1 µM
[5] = second compound 0.1 µM, first compound 3.16 µM
[6] = second compound 0.1 µM, first compound 10 µM
[7] = second compound 0.316 µM, first compound 0.0316 µM
[8] = second compound 0.316 µM, first compound 0.1 µM
[9] = second compound 0.316 µM, first compound 0.316 µM
[10] = second compound 0.316 µM, first compound 1 µM
[11] = second compound 0.316 µM, first compound 3.16 µM
[12] = second compound 0.316 µM, first compound 10 µM
[13] = second compound 1 µM, first compound 0.0316 µM
[14] = second compound 1 µM, first compound 0.1 µM
[15] = second compound 1 µM, first compound 0.316 µM
[16] = second compound 1 µM, first compound 1 µM
[17] = second compound 1 µM, first compound 3.16 µM
[18] = second compound 1 µM, first compound 10 µM
[19] = second compound 3.16 µM, first compound 0.0316 µM
[20] = second compound 3.16 µM, first compound 0.1 µM
[21] = second compound 3.16 µM, first compound 0.316 µM
[22] = second compound 3.16 µM, first compound 1 µM
[23] = second compound 3.16 µM, first compound 3.16 µM
[24] = second compound 3.16 µM, first compound 10 µM
[25] = second compound 10 µM, first compound 0.0316 µM
[26] = second compound 10 µM, first compound 0.1 µM
[27] = second compound 10 µM, first compound 0.316 µM
[28] = second compound 10 µM, first compound 1 µM
[29] = second compound 10 µM, first compound 3.16 µM
[30] = second compound 10 µM, first compound 10 µM
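Note: spheroids exposed to agents for seven days.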
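Throughout, for viability, T/C: 100% = DMSO vehicle control viability.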

Row | SMILES | IC50 (second compound 0.1 µM) [µM] | IC50 (second compound 0.316 µM) [µM] | IC50 (second compound 1 µM) [µM] | IC50 (second compound 3.16 µM) [µM] | IC50 (second compound 10 µM) [µM] | viability, T/C [1] [%] | viability, T/C [2] [%] | viability, T/C [3] [%] | viability, T/C [4] [%] | viability, T/C [5] [%] | viability, T/C [6] [%] | viability, T/C [7] [%] | viability, T/C [8] [%] | viability, T/C [9] [%] | viability, T/C [10] [%] | viability, T/C [11] [%] | viability, T/C [12] [%] | viability, T/C [13] [%] | viability, T/C [14] [%] | viability, T/C [15] [%] | also measured
1 | COc1cc(Nc2ncc3c(n2)-c2ccc(Cl)cc2C(c2c(F)cccc2OC)=NC3)ccc1C(=O)O + Cc1ccccc1N=Nc1ccc(NC(=O)c2ccnn2C)c(C)c1 | > 10 | > 10 | > 10 | > 10 | > 10 | 87.8 | 74.9 | 71.1 | 58.2 | 57.1 | 64.3 | 93.4 | 70.9 | 71.9 | 67.3 | 57.9 | 60.1 | 81 | 74 | 66.8 | viability, T/C [16]: 62.2%; viability, T/C [17]: 60.6%; viability, T/C [18]: 53.8%; viability, T/C [19]: 83%; viability, T/C [20]: 62.8%; viability, T/C [21]: 70.5%; viability, T/C [22]: 61.2%; viability, T/C [23]: 62.9%; viability, T/C [24]: 54.6%; viability, T/C [25]: 80.2%; viability, T/C [26]: 66.9%; viability, T/C [27]: 63.2%; viability, T/C [28]: 71%; viability, T/C [29]: 56.5%; viability, T/C [30]: 54.4%
2 | O=C(C=Cc1cccc(S(=O)(=O)Nc2ccccc2)c1)NO + Cc1ccccc1N=Nc1ccc(NC(=O)c2ccnn2C)c(C)c1 | 3.9 | 3.26 | 3.56 | 3.25 | 2.86 | 110 | 105 | 91.4 | 94.7 | 56.6 | 11.3 | 92.8 | 94.8 | 88 | 90.6 | 51.1 | 9.29 | 99.7 | 101 | 93.2 | viability, T/C [16]: 80.2%; viability, T/C [17]: 54.9%; viability, T/C [18]: 10.3%; viability, T/C [19]: 101%; viability, T/C [20]: 93.1%; viability, T/C [21]: 99%; viability, T/C [22]: 81.5%; viability, T/C [23]: 51.4%; viability, T/C [24]: 10.1%; viability, T/C [25]: 82.6%; viability, T/C [26]: 85.5%; viability, T/C [27]: 76.7%; viability, T/C [28]: 71.8%; viability, T/C [29]: 47.8%; viability, T/C [30]: 7.74%

Source: PubChem BioAssay AID1919000 (Molecular Pharmacology Branch, DTP, NCI, 2023)
